Read-outs that look alike come from different tables or passages of the source.
Legend:
QR2 [1] = target: T1, QR2 (Homo sapiens, UniProt P16083); test: QR2 steady-state kinetics; assay type: biochemical; details: for Ki: read-out: QR2 Ki, Table 1 value; for Inhibition of QR2: up to 100 μM compound, 5 nM QR2, 100 μM NMeH, 30 μM menadione
T1 sequence (P16083 1-231): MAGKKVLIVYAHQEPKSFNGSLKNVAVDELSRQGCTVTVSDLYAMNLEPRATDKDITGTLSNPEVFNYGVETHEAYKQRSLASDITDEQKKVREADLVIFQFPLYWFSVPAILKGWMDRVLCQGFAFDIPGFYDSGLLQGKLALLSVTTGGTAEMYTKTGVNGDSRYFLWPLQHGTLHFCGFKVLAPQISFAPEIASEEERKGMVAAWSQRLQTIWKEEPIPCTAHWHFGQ

COX-2 = target: T2, COX-2 (Homo sapiens, UniProt P35354); test: Inhibition of COX-2 activity by quantification of PGE2; assay type: biochemical
T2 sequence (P35354 18-604): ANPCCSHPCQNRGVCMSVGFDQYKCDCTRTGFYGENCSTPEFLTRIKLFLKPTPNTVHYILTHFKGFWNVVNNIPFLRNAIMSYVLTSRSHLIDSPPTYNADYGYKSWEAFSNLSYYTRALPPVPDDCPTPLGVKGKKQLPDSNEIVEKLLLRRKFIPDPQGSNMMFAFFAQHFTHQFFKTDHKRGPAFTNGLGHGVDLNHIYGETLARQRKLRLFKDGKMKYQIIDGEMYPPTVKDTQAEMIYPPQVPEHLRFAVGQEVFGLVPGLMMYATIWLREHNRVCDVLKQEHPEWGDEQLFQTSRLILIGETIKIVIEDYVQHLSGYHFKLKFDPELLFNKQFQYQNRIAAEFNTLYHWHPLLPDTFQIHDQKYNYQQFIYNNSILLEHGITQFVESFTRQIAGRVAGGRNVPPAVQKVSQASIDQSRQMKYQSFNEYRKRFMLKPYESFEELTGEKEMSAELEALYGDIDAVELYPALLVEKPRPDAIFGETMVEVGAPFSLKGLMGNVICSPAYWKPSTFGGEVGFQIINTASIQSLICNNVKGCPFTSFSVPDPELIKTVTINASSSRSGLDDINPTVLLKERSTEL

COX-1 = target: T3, COX-1 (Ovis aries, UniProt P05979); test: Inhibition of COX-1 activity by quantification of PGE2; assay type: biochemical
T3 sequence (P05979 25-600): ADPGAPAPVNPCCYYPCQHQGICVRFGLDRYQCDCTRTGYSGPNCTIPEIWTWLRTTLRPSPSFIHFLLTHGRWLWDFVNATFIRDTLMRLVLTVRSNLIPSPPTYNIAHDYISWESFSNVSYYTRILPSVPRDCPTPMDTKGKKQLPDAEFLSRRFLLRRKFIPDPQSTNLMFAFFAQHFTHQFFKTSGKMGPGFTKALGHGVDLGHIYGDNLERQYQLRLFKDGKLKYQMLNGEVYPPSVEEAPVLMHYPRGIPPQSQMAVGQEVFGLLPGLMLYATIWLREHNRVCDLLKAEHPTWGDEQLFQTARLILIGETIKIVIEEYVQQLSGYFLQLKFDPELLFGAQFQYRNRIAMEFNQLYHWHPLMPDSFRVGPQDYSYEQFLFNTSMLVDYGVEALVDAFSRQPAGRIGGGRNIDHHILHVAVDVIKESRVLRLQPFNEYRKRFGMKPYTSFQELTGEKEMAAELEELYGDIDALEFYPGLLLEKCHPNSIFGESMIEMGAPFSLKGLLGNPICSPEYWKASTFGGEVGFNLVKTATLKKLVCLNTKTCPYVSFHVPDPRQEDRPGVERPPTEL

QR1 = test: Effect of resveratrol on QR1 activity in Hepa 1c1c7 cells; assay type: cell-based; details: Hepa 1c1c7 mouse hepatoma cells, 48 h
QR2 [2] = target: T1, QR2; test: ITC titration of resveratrol into QR2; assay type: binding
SIRT1 = target: T4, SIRT1 (Homo sapiens, UniProt Q96EB6); test: ITC titration of resveratrol into SIRT1; assay type: binding; details: 20 μM SIRT1, no substrates
T4 sequence (Q96EB6 1-747): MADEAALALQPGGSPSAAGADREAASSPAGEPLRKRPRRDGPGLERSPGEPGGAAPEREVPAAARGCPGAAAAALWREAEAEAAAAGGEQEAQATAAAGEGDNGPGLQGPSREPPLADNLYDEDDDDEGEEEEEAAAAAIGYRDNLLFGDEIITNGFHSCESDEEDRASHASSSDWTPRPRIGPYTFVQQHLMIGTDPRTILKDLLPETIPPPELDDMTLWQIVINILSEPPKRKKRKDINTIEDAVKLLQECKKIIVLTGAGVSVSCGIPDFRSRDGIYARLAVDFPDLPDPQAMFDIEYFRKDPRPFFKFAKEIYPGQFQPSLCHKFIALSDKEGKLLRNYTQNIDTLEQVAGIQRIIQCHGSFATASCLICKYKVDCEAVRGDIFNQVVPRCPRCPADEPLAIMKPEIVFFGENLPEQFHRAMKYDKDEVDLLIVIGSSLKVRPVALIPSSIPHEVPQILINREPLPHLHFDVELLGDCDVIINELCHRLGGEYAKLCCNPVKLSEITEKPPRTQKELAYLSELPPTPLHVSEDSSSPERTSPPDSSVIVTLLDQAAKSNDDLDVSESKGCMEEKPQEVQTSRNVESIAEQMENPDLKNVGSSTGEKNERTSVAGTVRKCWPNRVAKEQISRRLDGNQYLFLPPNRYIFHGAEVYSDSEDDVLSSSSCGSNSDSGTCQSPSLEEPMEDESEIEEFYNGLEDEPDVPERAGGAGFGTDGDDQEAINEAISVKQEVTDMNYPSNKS

[3] = after an oral dose of pure resveratrol; cited from earlier work

## O=S(=O)(O)Oc1cc(O)cc(C=Cc2ccc(O)cc2)c1 [Resveratrol-3-O-sulfate, resveratrol-3-O-sulfate]
QR2 [1]
  Ki: > 100 µM
  Inhibition of QR2: cannot detect any inhibitory activity
COX-2
  IC50: > 300 µM
COX-1
  IC50: 68 ± 2.8 µM

## O=C(O)[C@H]1O[C@@H](Oc2cc(O)cc(/C=C/c3ccc(O)cc3)c2)[C@H](O)[C@@H](O)[C@@H]1O [Resveratrol-3-O-glucuronide, resveratrol-3-O-glucuronide]
COX-1; read-out: COX-1 IC50, PGE2 produced from arachidonic acid
  IC50: 150 ± 5.8 µM

## Oc1ccc(/C=C/c2cc(O)cc(O)c2)cc1 [Resveratrol, 3,5, 4′-trans-trihydroxystilbene]
QR1
  Effect on QR1 activity: only a weak activator
QR2 [1]; varied menadione, NMeH 100 μM
  QR2 Ki, uncompetitive against menadione: 0.9 ± 0.1 µM
QR2 [2]
  ΔH of binding to QR2: –14 kcal/mol
QR2 [2]; as printed in Figure 6 legend
  TΔS of binding to QR2: 3.9 kcal/mol
QR2 [2]; single binding site model
  N (ITC binding stoichiometry, QR2): 0.9
SIRT1
  Binding to SIRT1 by ITC: no detectable change in heat
COX-1
  IC50: 1.1 ± 0.44 µM

## O=S(=O)(O)Oc1ccc(C=Cc2cc(O)cc(O)c2)cc1 [Resveratrol-4′-O-sulfate, resveratrol-4′-O-sulfate]
QR2 [1]
  Ki: > 100 µM
  Inhibition of QR2: cannot detect any inhibitory activity
COX-2
  IC50: 2.5 ± 0.35 µM
COX-1
  IC50: 5.1 ± 0.55 µM
[3]
  Human plasma concentration: 2 to 10 µM

Reference: publication PMC3265359 (Biochemical Journal, 2010)
